Measured values taken from ChEMBL document CHEMBL5143665, “Discovery and preclinical evaluations of WX-0593, a novel ALK inhibitor targeting crizotinib-resistant mutations” (Bioorg Med Chem Lett, 2022).
pIC50: −log10 of the molar value.

Legend:
Assay in all cases: cells
[1] = tested on: BaF3; settings: Mus musculus
Description: Antiproliferative activity against mouse BaF3 cells harbouring ALK wild type assessed as reduction in cell viability by Celltitre-Glo luminescent assay

[2] = tested on: BaF3; settings: Mus musculus; remark: listed apart in the source
Description: Antiproliferative activity against mouse BaF3 cells harbouring ALK L1196M mutant assessed as reduction in cell viability by Celltitre-Glo luminescent assay

[3] = tested on: BaF3; settings: Mus musculus; remark: listed apart in the source
Description: Antiproliferative activity against mouse BaF3 cells harbouring ALK C1156Y mutant assessed as reduction in cell viability by Celltitre-Glo luminescent assay

[4] = tested on: KARPAS-299; settings: Homo sapiens
Description: Antiproliferative activity against human KARPAS-299 cells harbouring wild type ALK assessed as reduction in cell viability by Celltitre-Glo luminescent assay

| pIC50 [1] | pIC50 [2] | pIC50 [3] | pIC50 [4] | Compound |
| --- | --- | --- | --- | --- |
| 7.96 | 7.57 | 7.52 | 7.44 | COc1cc(C2CCC3(CC2)CCN(C)CC3)ccc1Nc1ncc(Cl)c(Nc2ccccc2P(C)(C)=O)n1 |
|  |  |  | 7.11 | COc1cc(N2CCC3(CCNC3)CC2)ccc1Nc1ncc(Cl)c(Nc2ccccc2P(C)(C)=O)n1 |
|  |  |  | 7.82 | COc1cc(N2CCC3(CCN(C)CC3)CC2)c(F)cc1Nc1ncc(Cl)c(Nc2ccccc2P(C)(C)=O)n1 |
